Assay results: US8686018B2, “Pharmaceutical composition” (Eisai R&D Management Co., Ltd., priority 2010, dated 2014)

What follows are molecules tested against T1, EP4 (Homo sapiens (Human), UniProt P35408) (assay: CRE-PLAP reporter assay). Settings: SE302 (HEK/293 clone) cells with endogenous EP4, stimulated with 3 ng/mL PGE2 overnight.
Type: cell-based
Protocol: Cells were maintained in DMEM/F12 (50:50) (MediaTech) supplemented with 10% FBS (Tissue Culture Biologicals) plus penicillin/streptomycin. When used for assays, cells were plated in a 96-well plate at 2×10^4 cells/100 μL/well in serum-free assay medium (DMEM/F12 supplemented with 0.1% BSA plus penicillin/streptomycin) and incubated for 4-6 h.
Exemplary compounds of the present invention were assayed according to the methods set forth above in the CRE-PLAP reporter assay described above.

T1 sequence (P35408 whole entry): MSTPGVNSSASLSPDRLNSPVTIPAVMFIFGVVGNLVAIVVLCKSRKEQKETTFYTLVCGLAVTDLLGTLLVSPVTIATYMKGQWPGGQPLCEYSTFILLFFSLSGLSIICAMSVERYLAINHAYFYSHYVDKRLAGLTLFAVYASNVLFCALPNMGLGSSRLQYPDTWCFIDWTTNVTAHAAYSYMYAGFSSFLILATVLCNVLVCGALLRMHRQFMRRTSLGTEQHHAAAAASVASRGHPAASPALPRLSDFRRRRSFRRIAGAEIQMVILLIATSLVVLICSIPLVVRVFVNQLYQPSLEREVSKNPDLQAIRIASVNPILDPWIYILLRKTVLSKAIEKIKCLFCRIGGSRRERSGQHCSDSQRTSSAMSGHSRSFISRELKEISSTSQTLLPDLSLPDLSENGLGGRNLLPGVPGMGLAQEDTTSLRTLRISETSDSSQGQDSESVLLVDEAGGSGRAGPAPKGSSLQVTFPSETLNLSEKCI

First: Cn1nc(C(F)F)c(C(=O)NC2(c3ccc(C(=O)O)cc3)CC2)c1Oc1ccc(C(F)(F)F)cc1 [ER-888366-00]
Second: Cn1nc(C(F)F)c(C(=O)NC2(c3ccc(C(=O)O)cc3)CC2)c1Oc1cccc(C(F)(F)F)c1 [ER-886078-00]
The IC50 of the first is 1.7-fold higher: 15 nM for the first, 9 nM for the second. The second is the more potent here.

First: COc1cc(OC)cc(Oc2c(C(=O)N[C@@H](C)c3ccc(C(=O)O)cc3)c(C)nn2C)c1 [ER-886035-00]
Second: Cc1cc(C)cc(Oc2c(C(=O)N[C@@H](C)c3ccc(C(=O)O)cc3)c(C)nn2C)c1 [ER-886033-00]
The IC50 of the first is 1.7-fold higher: 3660 nM for the first, 2120 nM for the second. The second is the more potent here.

First: Cc1nn(C)c(Oc2cc(F)ccc2F)c1C(=O)N[C@@H](C)c1ccc(C(=O)O)cc1 [ER-885720-00]
Second: Cc1nn(C)c(Oc2cc(F)ccc2Cl)c1C(=O)N[C@@H](C)c1ccc(C(=O)O)cc1 [ER-886025-00]
The IC50 of the first is 2.2-fold lower: 2220 nM for the first, 4910 nM for the second. The first is the more potent here.

Going from `C[C@H](NC(=O)c1c(C(F)(F)F)nn(C)c1Oc1ccc(Cl)cc1)c1ccc(C(=O)O)cc1` [ER-888369-00] to `C[C@H](NC(=O)c1c(C(F)(F)F)nn(C)c1Oc1cccc(Cl)c1)c1ccc(C(=O)O)cc1` [ER-885289-00], the IC50 falls from 89 nM to 45 nM (2-fold).

First: C[C@H](NC(=O)c1c(C(F)(F)F)nn(C)c1Oc1cccc(C(F)F)c1)c1ccc(C(=O)O)cc1 [ER-887995-00]
Second: C[C@H](NC(=O)c1c(C(F)(F)F)nn(C)c1Oc1cccc(OC(F)F)c1)c1ccc(C(=O)O)cc1 [ER-886082-00]
The IC50 of the first is 2.1-fold higher: 187 nM for the first, 88 nM for the second.

Compared with `Cc1nn(C)c(Oc2cccc(Cl)c2Cl)c1C(=O)N[C@@H](C)c1ccc(C(=O)O)cc1` [ER-886022-00], `Cc1nn(C)c(Oc2cccc(F)c2F)c1C(=O)N[C@@H](C)c1ccc(C(=O)O)cc1` [ER-885719-00] is 3.7-fold higher in IC50: 719 nM for the first, 2670 nM for the second. The first is the more potent here.

`Cn1nc(C(F)(F)F)c(C(=O)NC2(c3ccc(C(=O)O)cc3)CC2)c1Oc1ccc(C(F)(F)F)cc1` [ER-888364-00] and `Cn1nc(C(F)(F)F)c(C(=O)NC2(c3ccc(C(=O)O)cc3)CC2)c1Oc1cccc(C(F)(F)F)c1` [ER-885741-00] are within 1.5-fold of each other in IC50: 12 nM for the first, 13 nM for the second.

Compared with `Cc1nn(C)c(Oc2ccc(F)cc2)c1C(=O)N[C@@H](C)c1ccc(C(=O)O)cc1` [ER-885302-00], `Cc1nn(C)c(Oc2ccc(Cl)cc2)c1C(=O)N[C@@H](C)c1ccc(C(=O)O)cc1` [ER-880663-00] is 2.4-fold higher in IC50: 261 nM for the first, 619 nM for the second. The first is the more potent here.

Going from `Cn1nc(C(F)F)c(C(=O)NC2(c3ccc(C(=O)O)cc3)CC2)c1Oc1ccc(Cl)cc1` [ER-888370-00] to `Cn1nc(C(F)F)c(C(=O)NC2(c3ccc(C(=O)O)cc3)CC2)c1Oc1cccc(Cl)c1` [ER-888355-00], the IC50 rises from 35 nM to 157 nM (4.5-fold). The first is the more potent here.

First: C[C@H](NC(=O)c1c(C(F)F)nn(C)c1Oc1cccc(OC(F)F)c1)c1ccc(C(=O)O)cc1 [ER-886090-00]
Second: C[C@H](NC(=O)c1c(C(F)F)nn(C)c1Oc1cccc(C(F)F)c1)c1ccc(C(=O)O)cc1 [ER-887480-00]
The IC50 of the first is 3-fold lower: 17 nM for the first, 51 nM for the second. The first is the more potent here.

First: Cc1cccc(Oc2c(C(=O)N[C@@H](C)c3ccc(C(=O)O)cc3)c(C)nn2C)c1 [ER-886032-00]
Second: Cc1nn(C)c(Oc2cccc(Cl)c2)c1C(=O)N[C@@H](C)c1ccc(C(=O)O)cc1 [ER-885744-00]
The IC50 of the first is 2.1-fold higher: 356 nM for the first, 168 nM for the second. The second is the more potent here.

`Cc1nn(C)c(Oc2cc(Cl)cc(Cl)c2)c1C(=O)N[C@@H](C)c1ccc(C(=O)O)cc1` [ER-885721-00] and `Cc1nn(C)c(Oc2cc(F)cc(Cl)c2)c1C(=O)N[C@@H](C)c1ccc(C(=O)O)cc1` [ER-886024-00] are within 1.5-fold of each other in IC50: 846 nM for the first, 637 nM for the second.

Compared with `Cc1nn(C)c(Oc2cccc(Cl)c2)c1C(=O)NC1(c2ccc(C(=O)O)cc2)CC1` [ER-886077-00], `Cn1nc(C(F)(F)F)c(C(=O)NC2(c3ccc(C(=O)O)cc3)CC2)c1Oc1cccc(Cl)c1` [ER-885743-00] is 2.2-fold lower in IC50: 85 nM for the first, 38 nM for the second. The second is the more potent here.

First: Cc1nn(C)c(Oc2ccc(F)c(F)c2)c1C(=O)N[C@@H](C)c1ccc(C(=O)O)cc1 [ER-885718-00]
Second: Cc1nn(C)c(Oc2cccc(F)c2)c1C(=O)N[C@@H](C)c1ccc(C(=O)O)cc1 [ER-885717-00]
The IC50 of the first is 2.1-fold lower: 467 nM for the first, 974 nM for the second. The first is the more potent here.

Going from `Cc1nn(C)c(Oc2cccc(C(F)F)c2)c1C(=O)N[C@@H](C)c1ccc(C(=O)O)cc1` [ER-887495-00] to `Cc1nn(C)c(Oc2cccc(OC(F)F)c2)c1C(=O)N[C@@H](C)c1ccc(C(=O)O)cc1` [ER-886080-00], the IC50 falls from 219 nM to 58 nM (3.8-fold).

`C[C@H](NC(=O)c1c(C(F)(F)F)nn(C)c1Oc1cccc(C(F)(F)F)c1)c1ccc(C(=O)O)cc1` [ER-885291-00] and `C[C@H](NC(=O)c1c(C(F)(F)F)nn(C)c1Oc1ccc(C(F)(F)F)cc1)c1ccc(C(=O)O)cc1` [ER-888365-00] are within 1.5-fold of each other in IC50: 27 nM for the first, 28 nM for the second.

Going from `Cc1nn(C)c(Oc2cccc(OC(F)(F)F)c2)c1C(=O)N[C@@H](C)c1ccc(C(=O)O)cc1` [ER-886061-00] to `Cc1nn(C)c(Oc2cccc(C(F)(F)F)c2)c1C(=O)N[C@@H](C)c1ccc(C(=O)O)cc1` [ER-885290-00], the IC50 falls from 89 nM to 18 nM (4.9-fold). The second is the more potent here.

Going from `Cc1nn(C)c(Oc2ccc(C(F)(F)F)cc2)c1C(=O)N[C@@H](C)c1ccc(C(=O)O)cc1` [ER-885311-00] to `C[C@H](NC(=O)c1c(C(F)F)nn(C)c1Oc1ccc(C(F)(F)F)cc1)c1ccc(C(=O)O)cc1` [ER-888367-00], the IC50 falls from 273 nM to 23 nM (12-fold).

First: C[C@H](NC(=O)c1c(C(F)F)nn(C)c1Oc1cccc(Cl)c1)c1ccc(C(=O)O)cc1 [ER-886045-00]
Second: C[C@H](NC(=O)c1c(C(F)F)nn(C)c1Oc1ccc(Cl)cc1)c1ccc(C(=O)O)cc1 [ER-888371-00]
The IC50 of the first is 4.9-fold lower: 18 nM for the first, 89 nM for the second. The first is the more potent here.

Going from `C[C@H](NC(=O)c1c(C(F)F)nn(C)c1Oc1ccc(Cl)c(Cl)c1)c1ccc(C(=O)O)cc1` [ER-888024-00] to `Cc1nn(C)c(Oc2ccc(Cl)c(Cl)c2)c1C(=O)N[C@@H](C)c1ccc(C(=O)O)cc1` [ER-885716-00], the IC50 rises from 31 nM to 92 nM (3-fold).

Compared with `C[C@H](NC(=O)c1c(C(F)(F)F)nn(C)c1Oc1ccc(Cl)c(Cl)c1)c1ccc(C(=O)O)cc1` [ER-886074-00], `C[C@H](NC(=O)c1c(C(F)(F)F)nn(C)c1Oc1ccc(F)c(F)c1)c1ccc(C(=O)O)cc1` [ER-886073-00] is 11-fold higher in IC50: 10 nM for the first, 109 nM for the second.

Compared with `Cn1nc(C(F)F)c(C(=O)NC2(c3ccc(C(=O)O)cc3)CC2)c1Oc1ccc(Cl)c(Cl)c1` [ER-888348-00], `Cn1nc(C(F)(F)F)c(C(=O)NC2(c3ccc(C(=O)O)cc3)CC2)c1Oc1ccc(Cl)c(Cl)c1` [ER-888363-00] is 2.1-fold lower in IC50: 17 nM for the first, 8 nM for the second.

Going from `Cc1nn(C)c(Oc2cccc(C(F)(F)F)c2)c1C(=O)NC1(c2ccc(C(=O)O)cc2)CC1` [ER-885740-00] to `Cn1nc(C(F)(F)F)c(C(=O)NC2(c3ccc(C(=O)O)cc3)CC2)c1Oc1ccc(Cl)cc1` [ER-888368-00], the IC50 rises from 12 nM to 18 nM (1.5-fold). The first is the more potent here.

Going from `Cc1ccc(Oc2c(C(=O)N[C@@H](C)c3ccc(C(=O)O)cc3)c(C)nn2C)cc1` [ER-885749-00] to `C[C@H](NC(=O)c1c(C(F)(F)F)nn(C)c1Oc1cccc(F)c1)c1ccc(C(=O)O)cc1` [ER-886072-00], the IC50 falls from 451 nM to 132 nM (3.4-fold). The second is the more potent here.

The molecules below were run against T1, EP4 (assay: Radioligand EP4 receptor binding assay). Settings: Chem-1 cell membranes overexpressing human EP4, [3H]-PGE2 displacement.
Protocol: The radioligand EP4 binding assay was performed using ChemiScreen recombinant human EP4 receptor membrane preparations from Millipore, according to manufacturer's instructions. Briefly, membranes prepared from Chem-1 cells overexpressing human EP4 cDNA (Millipore) were mixed with 1.8 nmol.L^−1 [^3H]-PGE2 and 5 μmol.L^−1 unlabelled PGE2 in the presence or absence of various concentrations of testing compounds in binding buffer (50 mmol.L^−1 HEPES, pH 7.4, 5 mmol.L^−1 MgCl2, 1 mmol.L^−1 CaCl2, 0.2% BSA) in a nonbinding 96-well plate, and incubated for 1-2 h at room temperature. Prior to filtration, a GF/C 96-well filter plate was coated with 0.33% polyethyleneimine for 30 min, then washed with 50 mmol.L^−1 HEPES, pH 7.4, 0.5% BSA. Binding reactions were transferred to the filter plate, and washed 3 times with Wash Buffer (1 mL per well per wash). The plate was dried and radioactivity counted.

Compared with `Cn1nc(C(F)F)c(C(=O)NC2(c3ccc(C(=O)O)cc3)CC2)c1Oc1cccc(C(F)(F)F)c1` [ER-886078-00], `Cc1nn(C)c(Oc2cccc(C(F)(F)F)c2)c1C(=O)NC1(c2ccc(C(=O)O)cc2)CC1` [ER-885740-00] is 5.4-fold higher in Ki: 8 nM for the first, 43 nM for the second. The first binds more tightly here.

Going from `C[C@H](NC(=O)c1c(C(F)F)nn(C)c1Oc1cccc(OC(F)F)c1)c1ccc(C(=O)O)cc1` [ER-886090-00] to `C[C@H](NC(=O)c1c(C(F)F)nn(C)c1Oc1cccc(C(F)F)c1)c1ccc(C(=O)O)cc1` [ER-887480-00], the Ki rises from 10 nM to 26 nM (2.6-fold). The first binds more tightly here.

First: C[C@H](NC(=O)c1c(C(F)F)nn(C)c1Oc1cccc(Cl)c1)c1ccc(C(=O)O)cc1 [ER-886045-00]
Second: Cc1nn(C)c(Oc2cccc(C(F)(F)F)c2)c1C(=O)N[C@@H](C)c1ccc(C(=O)O)cc1 [ER-885290-00]
The Ki of the first is 3.6-fold higher: 50 nM for the first, 14 nM for the second.

`C[C@H](NC(=O)c1c(C(F)(F)F)nn(C)c1Oc1ccc(Cl)c(Cl)c1)c1ccc(C(=O)O)cc1` [ER-886074-00] and `Cn1nc(C(F)(F)F)c(C(=O)NC2(c3ccc(C(=O)O)cc3)CC2)c1Oc1cccc(C(F)(F)F)c1` [ER-885741-00] are within 1.5-fold of each other in Ki: 13 nM for the first, 16 nM for the second.
